Reference: patent US8871796B2, “Diaryl ether derivatives as notch sparing gamma secretase inhibitors” (Merck Sharp & Dohme Corp., priority 2009, dated 2014)
Read-outs that look alike come from different tables or passages of the source.

Assay: APP processing: AlphaLisa assay of secreted Aβ40 and Aβ42 from SP4CT cells
Format: cell-based
Details: Homo sapiens, SH-SY5Y cells expressing amyloid β protein (SP4CT cells)
Experimental: APP Processing (Assay Quantitates Secreted Aβ Analytes from Cell Lines):
The effect of compounds on the abundance of Aβ40 and Aβ42 peptides generated from SH-SY5Y cells expressing amyloid β protein (SP4CT cells) are determined by an AlphaLisa™ assay. Analogous to an ELISA assay, generation of […] AlphaLisa™ assay requires “donor” and “acceptor” beads to be brought in close proximity by specific antibody recognition of either Aβ40 or Aβ42 peptides. The assay is accomplished by removing media from compound-treated SP4CT cells to two different microplates, followed by the addition of donor beads conjugated with streptavidin binding a biotinylated anti-amyloid β monocolonal antibody (clone 4G8). Acceptor beads directly conjugated with anti-Aβ40 monoclonal antibody (G210) are added to one microplate and anti-Aβ42 monoclonal antibody (12F4) acceptor beads were added to the other. Abundance of Aβ40 and Aβ42 is directly proportional to the luminescent signal generated following excitation of donor beads by laser light.

[1] = read-out: IC50, inhibition of production of Aβ40 peptide
[2] = read-out: IC50, inhibition of production of Aβ42 peptide

Row | IC50 [1] [nM] | IC50 [2] [nM] | Compound
1 | < 200 | < 200 | CCn1nc(Oc2ccc(C(F)(F)F)cc2)cc1-c1cccc(C(C)(C)NS(=O)(=O)NC)c1 [Example 24, N-[1-(3-{1-ethyl-3-[4-(trifluoromethyl)phenoxy]-1H-pyrazol-5-yl}phenyl)-1-methylethyl]-N′-methylsulfamide]
2 | < 200 | < 200 | CCn1nc(Oc2ccc(C(F)(F)F)cc2)cc1-c1cccc(C(C)(C)NS(=O)(=O)N(C)C)c1 [Example 25, N′-[1-(3-{1-ethyl-3-[4-(trifluoromethyl)phenoxy]-1H-pyrazol-5-yl}phenyl)-1-methylethyl]-N,N-dimethylsulfamide]
3 | < 200 | < 200 | CCn1nc(Oc2ccc(C(F)(F)F)cc2)cc1-c1cccc(C(C)(C)NS(=O)(=O)N2CCCC2)c1 [Example 26, N-[1-(3-{1-ethyl-3-[4-(trifluoromethyl)phenoxy]-1H-pyrazol-5-yl}phenyl)-1-methylethyl]pyrrolidine-1-sulfonamide]
4 | < 200 | < 200 | CCn1nc(Oc2ccc(C(F)(F)F)cc2)cc1-c1cccc(C(C)(C)NS(=O)(=O)N2CCCCC2)c1 [Example 27, N-[1-(3-{1-ethyl-3-[4-(trifluoromethyl)phenoxy]-1H-pyrazol-5-yl}phenyl)-1 methylethyl]piperidine-1-sulfonamide]
5 | < 200 | < 200 | CCn1nc(-c2cccc(C3(NS(=O)(=O)CC(F)(F)F)CC3)c2)cc1Oc1ccc(C(F)(F)F)cc1 [Example 28, N-[1-(3-{1-ethyl-5-[4-(trifluoromethyl)phenoxy]-1H-pyrazol-3-yl}phenyl)cyclopropyl]-2,2,2-trifluoroethanesulfonamide]
6 | < 200 | < 200 | CCn1nc(Oc2ccc(C(F)(F)F)cc2)cc1-c1cccc(C2(NS(=O)(=O)NC3CCCC3)CC2)c1 [Example 29, N-cyclopentyl-N′-[1-(3-{1-ethyl-3-[4-(trifluoromethyl)phenoxy]-1H-pyrazol-5-yl}phenyl)cyclopropyl] sulfamide]
7 | < 200 | < 200 | CCn1nc(Oc2ccc(C(F)(F)F)cc2)cc1-c1cccc(C2(NS(=O)(=O)NCC(C)C)CC2)c1 [Example 30, N-[1-(3-{1-ethyl-3-[4-(trifluoromethyl)phenoxy]-1H-pyrazo1-5-yl}phenyl)cyclopropyl]-N′-isobutylsulfamide]
8 | < 200 | < 200 | CCn1nc(Oc2ccc(C(F)(F)F)cc2)cc1-c1cccc(C2(NS(=O)(=O)CC(F)(F)F)CC2)c1 [Example 31, N-[1-(3-{1-ethyl-3-[4-(trifluoromethyl)phenoxy]-1H-pyrazol-5-yl}phenyl)cyclopropyl]-2,2,2-trifluoroethanesulfonamide]
9 | < 200 | < 200 | CCn1nc(Oc2ccc(C(F)(F)F)cn2)cc1-c1cccc(C2(NS(=O)(=O)CC(F)(F)F)CC2)c1 [Example 32, N-{1-[3-(1-ethyl-3-{[5-(trifluoromethyl)pyridin-2-yl]oxy}-1H-pyrazol-5-yl)phenyl]cyclopropyl}-2,2,2-trifluoroethanesulfonamide]
10 | < 200 | < 200 | CCCNS(=O)(=O)NC1(c2cccc(-c3cc(Oc4ccc(C(F)(F)F)cc4)nn3CC)c2)CC1 [Example 33, N-[1-(3-{1-ethyl-3-[4-(trifluoromethyl)phenoxy]-1H-pyrazol-5-yl}phenyl)cyclopropyl]-N′-propylsulfamide]
11 | < 200 | < 200 | CCn1nc(Oc2ccc(C(F)(F)F)cc2)cc1-c1cccc(C2(NS(=O)(=O)NC)CC2)c1 [Example 34, N-[1-(3-{1-ethyl-3-[4-(trifluoromethyl)phenoxy]-1H-pyrazol-5-yl}phenyl)cyclopropyl]-N′-methylsulfamide]
12 | < 200 | < 200 | CCn1nc(-c2cccc(C3(NS(=O)(=O)NC4CCCC4)CC3)c2)cc1Oc1ccc(C(F)(F)F)cc1 [Example 35, N-cyclopentyl-N′-[1-(3-{1-ethyl-5-[4-(trifluoromethyl)phenoxy]-1H-pyrazol-3-yl}phenyl)cyclopropyl] sulfamide]
13 | < 200 | < 200 | CCn1nc(-c2cccc(C3(NS(=O)(=O)NCC(F)(F)F)CC3)c2)cc1Oc1ccc(C(F)(F)F)cc1 [Example 36, N-[1-(3-{1-ethyl-5-[4-(trifluoromethyl)phenoxy]-1H-pyrazol-3-yl}phenyl)cyclopropyl]-N′-(2,2,2-trifluoroethyl)sulfamide]
14 | < 200 | < 200 | CCn1nc(-c2cccc(C3(NS(=O)(=O)CC4CCC4)CC3)c2)cc1Oc1ccc(C(F)(F)F)cc1 [Example 37, 1-cyclobutyl-N-[1-(3-{1-ethyl-5-[4-(trifluoromethyl)phenoxy]-1H-pyrazol-3-yl}phenyl)cyclopropyl] methanesulfonamide]
15 | < 200 | < 200 | CCn1nc(-c2cccc(C3(NS(=O)(=O)CC)CC3)c2)cc1Oc1ccc(C(F)(F)F)cc1 [Example 38, N-[1-(3-{1-ethyl-5-[4-(trifluoromethyl)phenoxy]-1H-pyrazol-3-yl}phenyl)cyclopropyl] ethanesulfonamide]
16 | < 200 | < 200 | CCn1nc(-c2cccc(C3(NS(=O)(=O)CC(F)(F)F)CC3)c2)cc1Oc1ncc(C(F)(F)F)cc1Cl [Example 39, N-{1-[3-(5-{[3-chloro-5-(trifluoromethyl)pyridin-2-yl]oxy}-1-ethyl-1H-pyrazol-3-yl)phenyl]cyclopropyl}-2,2,2-trifluoroethanesulfonamide]
17 | < 200 | < 200 | CCn1nc(-c2cccc(C3(NS(=O)(=O)CC(F)(F)F)CC3)c2)cc1Oc1ccc(C(F)(F)F)nc1 [Example 40, N-{1-[3-(1-ethyl-5-{[6-(trifluoromethyl)pyridin-3-yl]oxy}-1H-pyrazol-3-yl)phenyl]cyclopropyl}-2,2,2-trifluoroethanesulfonamide]
18 | < 200 | < 200 | CCn1nc(-c2cccc(C3(NS(=O)(=O)NCC(F)(F)F)CC3)c2)cc1Oc1ccc(C(F)(F)F)cn1 [Example 41, N-{1-[3-(1-ethyl-5-{[5-(trifluoromethyl)pyridin-2-yl]oxy}-1H-pyrazol-3-yl)phenyl]cyclopropyl}-N′-(2,2,2-trifluoroethyl)sulfamide]
19 | < 200 | < 200 | CCn1nc(-c2cccc(C3(NS(=O)(=O)CC4CCC4)CC3)c2)cc1Oc1ccc(C(F)(F)F)cn1 [Example 42, 1-cyclobutyl-N-{1-[3-(1-ethyl-5-{[5-(trifluoromethyl)pyridin-2-yl]oxy}-1H-pyrazol-3-yl)phenyl]cyclopropyl} methanesulfonamide]
20 | < 200 | < 200 | CCn1nc(-c2cccc(C3(NS(=O)(=O)NC4CCC4)CC3)c2)cc1Oc1ccc(C(F)(F)F)cn1 [Example 43, N-cyclobutyl-N′-{1-[3-(1-ethyl-5-{[5-(trifluoromethyl)pyridin-2-yl]oxy}-1H-pyrazol-3-yl)phenyl]cyclopropyl} sulfamide]
21 | < 200 | < 200 | CCn1nc(-c2cccc(C3(NS(=O)(=O)CC(F)(F)F)CC3)c2)cc1Oc1ccc(C(F)(F)F)cn1 [Example 44, N-{1-[3-(1-ethyl-5-{[5-(trifluoromethyl)pyridin-2-yl]oxy}-1H-pyrazol-3-yl)phenyl]cyclopropyl}-2,2,2-trifluoroethanesulfonamide]
22 | < 200 | < 200 | CCn1nc(-c2cccc(C3(NS(=O)(=O)NC)CC3)c2)cc1Oc1ccc(C(F)(F)F)cn1 [Example 45, N-{1-[3-(1-ethyl-5-{[5-(trifluoromethyl)pyridin-2-yl]oxy}-1H-pyrazol-3-yl)phenyl]cyclopropyl}-N′-methylsulfamide]
23 | < 200 | < 200 | CCCNS(=O)(=O)NC1(c2cccc(-c3cc(Oc4ccc(C(F)(F)F)cc4)n(CC)n3)c2)CC1 [Example 46, N-[1-(3-{1-ethyl-5-[4-(trifluoromethyl)phenoxy]-1H-pyrazol-3-yl}phenyl)cyclopropyl]-N′-propylsulfamide]
24 | < 200 | < 200 | CCn1nc(-c2cccc(C3(NS(=O)(=O)NCC(C)C)CC3)c2)cc1Oc1ccc(C(F)(F)F)cc1 [Example 47, N-[1-(3-{1-ethyl-5-[4-(trifluoromethyl)phenoxy]-1H-pyrazol-3-yl}phenyl)cyclopropyl]-N′-isobutylsulfamide]
25 | < 200 | < 200 | CCn1nc(-c2cccc(C3(NS(=O)(=O)NC)CC3)c2)cc1Oc1ccc(C(F)(F)F)cc1 [Example 48, N-[1-(3-{1-ethyl-5-[4-(trifluoromethyl)phenoxy]-1H-pyrazol-3-yl}phenyl)cyclopropyl]-N′-methylsulfamide]
26 | < 200 | < 200 | CCn1nc(-c2cccc(C3(NS(=O)(=O)CC(F)(F)F)CC3)c2)cc1Oc1ncc(F)cn1 [Example 49, N-[1-(3-{1-ethyl-5-[(5-fluoropyrimidin-2-yl)oxy]-1H-pyrazol-3-yl}phenyl)cyclopropyl]-2,2,2-trifluoroethanesulfonamide]
27 | < 200 | < 200 | CCn1nc(-c2cccc(C3(NS(=O)(=O)CC(F)(F)F)CC3)c2)cc1Oc1ccncc1 [Example 50, N-(1-{3-[1-ethyl-5-(pyridin-4-yloxy)-1H-pyrazol-3-yl]phenyl}cyclopropyl)-2,2,2-trifluoroethanesulfonamide]
28 | < 200 | < 200 | CCn1nc(-c2cccc(C3(NS(=O)(=O)CC(F)(F)F)CC3)n2)cc1Oc1ccc(C(F)(F)F)cc1 [Example 51, N-[1-(6-{1-ethyl-5-[4-(trifluoromethyl)phenoxy]-1H-pyrazol-3-yl}pyridin-2-yl)cyclopropyl]-2,2,2-trifluoroethanesulfonamide]
